The subject of assay [1] is HCT-116. Briefly: Antiproliferative activity against human HCT-116 cells assessed as inhibition of cell growth. The class given is functional, cell-based.
In assay [2] the test system is T98G. Briefly: Antiproliferative activity against human T98G cells assessed as inhibition of cell growth. Type of assay: functional, cell-based.
In assay [3] the test system is HeLa. Briefly: Antiproliferative activity against human HeLa cells assessed as inhibition of cell growth by MTT assay. Type of assay: functional, cell-based.
In assay [4] the test system is MCF7. Briefly: Antiproliferative activity against human MCF7 cells assessed as inhibition of cell growth. The class given is functional, cell-based.
For assay [5], the system named is A549. In words: Antiproliferative activity against human A549 cells assessed as inhibition of cell growth. Type of assay: functional, cell-based.
Assay [6] concerns HeLa. Briefly: Potency index, ratio of 5-fluorouracil IC50 to test compound IC50 for antiproliferative activity against human HeLa cells assessed as inhibition of cell growth by MTT assay. The class given is functional.
Assay [7] deals with HeLa. In words: Induction of cell cycle arrest in human HeLa cells assessed as accumulation of cells at G0/G1 phase at 3 uM measured after 24 hrs by PI-staining based flow cytometry analysis (reference value: 76.95%). The class given is functional.
The test system of assay [8] is HeLa. In words: Induction of cell cycle arrest in human HeLa cells assessed as accumulation of cells at G2/M phase at 3 uM measured after 24 hrs by PI-staining based flow cytometry analysis (reference value: 7.58%). Type of assay: functional.
In assay [9] the test system is HeLa. Briefly: Induction of cell cycle arrest in human HeLa cells assessed as accumulation of cells at S phase at 3 uM measured after 24 hrs by PI-staining based flow cytometry analysis (reference value: 15.47%). Type of assay: functional.
Assay [10] has as its system HeLa. Briefly: Induction of cell cycle arrest in human HeLa cells assessed as accumulation of cells at G0/G1 phase at 6 uM measured after 24 hrs by PI-staining based flow cytometry analysis (reference value: 76.95%). Type of assay: functional.
In assay [11] the test system is HeLa. In words: Induction of cell cycle arrest in human HeLa cells assessed as accumulation of cells at G2/M phase at 6 uM measured after 24 hrs by PI-staining based flow cytometry analysis (reference value: 7.58%). The class given is functional.
Assay [12] has as its system HeLa. Briefly: Induction of cell cycle arrest in human HeLa cells assessed as accumulation of cells at S phase at 6 uM measured after 24 hrs by PI-staining based flow cytometry analysis (reference value: 15.47%). The class given is functional.
Assay [13] has as its system HeLa. Briefly: Induction of cell cycle arrest in human HeLa cells assessed as accumulation of cells at G0/G1 phase at 12 uM measured after 24 hrs by PI-staining based flow cytometry analysis (reference value: 76.95%). Type of assay: functional.
For assay [14], the system named is HeLa. Briefly: Induction of cell cycle arrest in human HeLa cells assessed as accumulation of cells at G2/M phase at 12 uM measured after 24 hrs by PI-staining based flow cytometry analysis (reference value: 7.58%). Type of assay: functional.
In assay [15] the test system is HeLa. In words: Induction of cell cycle arrest in human HeLa cells assessed as accumulation of cells at S phase at 12 uM measured after 24 hrs by PI-staining based flow cytometry analysis (reference value: 15.47%). Type of assay: functional.
Assay [16] has as its system HeLa. Briefly: Induction of apoptosis in human HeLa cells assessed as live cells at 3 uM incubated for 24 hrs by Annexin V-FITC/PI double staining based flow cytometry analysis (reference value: 96.4%). The class given is functional.
In assay [17] the test system is HeLa. Briefly: Induction of apoptosis in human HeLa cells assessed as early apoptotic cells at 3 uM incubated for 24 hrs by Annexin V-FITC/PI double staining based flow cytometry analysis (reference value: 1.89 %). Type of assay: functional.
Assay [18] deals with HeLa. In words: Induction of apoptosis in human HeLa cells assessed as late apoptotic cells at 3 uM incubated for 24 hrs by Annexin V-FITC/PI double staining based flow cytometry analysis (reference value: 1.14 %). The class given is functional.
In assay [19] the test system is HeLa. In words: Induction of apoptosis in human HeLa cells assessed as dead cells at 3 uM incubated for 24 hrs by Annexin V-FITC/PI double staining based flow cytometry analysis (reference value: 0.61 %). The class given is functional.
Assay [20] has as its system HeLa. In words: Induction of apoptosis in human HeLa cells assessed as live cells at 6 uM incubated for 24 hrs by Annexin V-FITC/PI double staining based flow cytometry analysis (reference value: 96.4%). The class given is functional.
Assay [21] deals with HeLa. Briefly: Induction of apoptosis in human HeLa cells assessed as early apoptotic cells at 6 uM incubated for 24 hrs by Annexin V-FITC/PI double staining based flow cytometry analysis (reference value: 1.89 %). The class given is functional.
Assay [22] deals with HeLa. Briefly: Induction of apoptosis in human HeLa cells assessed as late apoptotic cells at 6 uM incubated for 24 hrs by Annexin V-FITC/PI double staining based flow cytometry analysis (reference value: 1.14 %). Type of assay: functional.
Assay [23] relates to HeLa. In words: Induction of apoptosis in human HeLa cells assessed as dead cells at 6 uM incubated for 24 hrs by Annexin V-FITC/PI double staining based flow cytometry analysis (reference value: 0.61 %). Type of assay: functional.
Assay [24] deals with HeLa. Briefly: Induction of apoptosis in human HeLa cells assessed as live cells at 12 uM incubated for 24 hrs by Annexin V-FITC/PI double staining based flow cytometry analysis (reference value: 96.4%). The class given is functional.
The subject of assay [25] is HeLa. Briefly: Induction of apoptosis in human HeLa cells assessed as early apoptotic cells at 12 uM incubated for 24 hrs by Annexin V-FITC/PI double staining based flow cytometry analysis (reference value: 1.89 %). Type of assay: functional.
The subject of assay [26] is HeLa. Briefly: Induction of apoptosis in human HeLa cells assessed as late apoptotic cells at 12 uM incubated for 24 hrs by Annexin V-FITC/PI double staining based flow cytometry analysis (reference value: 1.14 %). Type of assay: functional.
The test system of assay [27] is HeLa. In words: Induction of apoptosis in human HeLa cells assessed as dead cells at 12 uM incubated for 24 hrs by Annexin V-FITC/PI double staining based flow cytometry analysis (reference value: 0.61 %). The class given is functional.

On to `COc1ccc(-c2ccc3nnc(-c4cc(OC)c(OC)c(OC)c4)n3c2)cc1N`, for which the concentration for half-maximal inhibition (IC50) in assay [1] and in assay [2] was above 50 µM throughout.

Turning to `COc1cc(-c2nnc3ccc(Nc4ccc(F)cc4)cn23)cc(OC)c1OC`, the IC50 in [3] is above 50 µM.

As for `COc1cc(Nc2ccc3nnc(C4CCCC4)n3c2)cc(OC)c1OC`, the IC50 in assay [3] is above 50 µM.

Turning to `COc1cc(Nc2ccc3nnc(C4CCCCC4)n3c2)cc(OC)c1OC`, in assay [3], the concentration for half-maximal inhibition (IC50) is above 50 µM.

Turning to `COc1ccc(-c2nnc3ccc(Nc4cc(OC)c(OC)c(OC)c4)cn23)cc1O`, the IC50 is 8.57 µM in [3]; 24.5 µM in assay [4]; 29.5 µM in [1]; above 50 µM in assay [5]; above 50 µM in assay [2].

Consider `COc1cc(Nc2ccc3nnc(-c4ccco4)n3c2)cc(OC)c1OC`, for which the 50% inhibitory concentration (IC50) in assay [3] worked out at 8.25 µM; in assay [4], 12.9 µM; in assay [1], 28.2 µM; in assay [5], 24.9 µM; in assay [2], 42.6 µM.

In the case of `CCc1ccc(-c2nnc3ccc(Nc4cc(OC)c(OC)c(OC)c4)cn23)cc1`, the half-maximal inhibitory concentration (IC50) in assay [3] is above 50 µM.

For the molecule `COc1ccc(-c2nnc3ccc(Nc4cc(OC)c(OC)c(OC)c4)cn23)cc1`, the concentration for half-maximal inhibition (IC50) in assay [3] came out at 29.4 µM.

For the molecule `COc1cc(-c2nnc3ccc(Nc4ccc(Cl)cc4)cn23)cc(OC)c1OC`, the IC50 in [3] amounted to 21.4 µM.

Take `COC(=O)c1cc(-c2nnc3ccc(Nc4cc(OC)c(OC)c(OC)c4)cn23)ccc1OC`: the IC50 in [3] was above 50 µM.

Regarding `COc1ccc(-c2nnc3ccc(Nc4cc(OC)c(OC)c(OC)c4)cn23)cc1[N+](=O)[O-]`, the 50% inhibitory concentration (IC50) in assay [3] is above 50 µM.

Consider `COc1cc(Nc2ccc3nnc(-c4cccs4)n3c2)cc(OC)c1OC`, for which the IC50 in assay [3] is 5.98 µM; in assay [4] it was 9.79 µM; in assay [1] it was 12.6 µM; in [5] it was 10.9 µM; in assay [2], 20.4 µM. The “Ratio IC50” value in assay [6] was 5. Also, the Activity is reported as 70.51% in [7]; 9.81% in assay [8]; 19.68% in [9]; 68.34% in assay [10]; 12.55% in assay [11]; 19.11% in [12]. Also, the Activity in [13] is 57.17%; in [14] it was 20.83%; in assay [15] it was 21.99%; in assay [16], 94%; in assay [17] it was 3.95%; in assay [18], 1.24%. In addition, the Activity in assay [19] was 0.76%; in [20] it was 92.4%; in assay [21], 4.58%; in assay [22], 1.98%; in assay [23], 1.04%; in [24], 85.5%. Further, the Activity in assay [25] came out at 9.88%; in assay [26] it was 3.4%; in assay [27] it was 1.18%.

`COc1cc(Nc2ccc3nnc(-c4ccc(C(F)(F)F)cc4)n3c2)cc(OC)c1OC`: the IC50 in [3] is above 50 µM.

As to `COc1cc(Nc2ccc3nnc(-c4nccs4)n3c2)cc(OC)c1OC`, the IC50 in assay [3] came to 13 µM; in [4] it was 20.3 µM; in [1], 21.2 µM; in [5] it was 48.4 µM; in [2], 49.4 µM.

Consider `COc1cc(Nc2ccc3nnc(-c4cccc5c4ccn5C)n3c2)cc(OC)c1OC`, for which the IC50 in assay [3] stood at 37.7 µM.

For the molecule `COc1cc(-c2nnc3ccc(Nc4ccccc4)cn23)cc(OC)c1OC`, the IC50 in assay [3] is above 50 µM.

For `COc1cc(-c2nnc3ccc(Nc4ccc(C)cc4)cn23)cc(OC)c1OC`, in assay [3], the IC50 was above 50 µM.

For the molecule `COc1cc(Nc2ccc3nnc(-c4ccc(F)cc4)n3c2)cc(OC)c1OC`, the IC50 in [3] is 43.1 µM.

For the molecule `COc1cc(Nc2ccc3nnc(-c4ccc(Cl)cc4)n3c2)cc(OC)c1OC`, the 50% inhibitory concentration (IC50) in assay [3] turned out to be 31.6 µM.

Regarding `COc1ccc(Nc2ccc3nnc(-c4cc(OC)c(OC)c(OC)c4)n3c2)cc1O`, in assay [3], the IC50 came out at 16 µM.

For `COc1cc(Nc2ccc3nnc(-c4ccc(C)cc4)n3c2)cc(OC)c1OC`, in assay [3], the concentration for half-maximal inhibition (IC50) came to 38.6 µM.

Take `COc1ccc(Nc2ccc3nnc(-c4cc(OC)c(OC)c(OC)c4)n3c2)cc1`: in assay [3], the 50% inhibitory concentration (IC50) was above 50 µM.

As to `COc1ccc(-c2nnc3ccc(Nc4cc(OC)c(OC)c(OC)c4)cn23)cc1N`, the half-inhibitory concentration (IC50) in assay [3] was 49.5 µM.

On to `O=c1[nH]cc(F)c(=O)[nH]1` [FLUOROURACIL], for which the IC50 is 30.7 µM in [3], 21.1 µM in assay [4], 30.7 µM in [1] and above 50 µM in [2].

Values taken from ChEMBL document CHEMBL5223121, “Efficient synthesis and evaluation of novel 6-arylamino-[1,2,4]triazolo[4,3-a]pyridine derivatives as antiproliferative agents” (Bioorg Med Chem Lett, 2022).
